Laboratory results: patent publication US20250241901A1, “ACTIVATION OF MNRR1 / CHCHD2 AS A THERAPEUTIC TARGET FOR MITOCHONDRIA ASSOCIATED DISORDERS” (Wayne State University, priority 2024, published 2025)

Key:
[1] = tested on: inflammatory factors such as ll6, ll1b, Tnf, and Tlr4; experiment: High-throughput RT qPCR of inflammatory factors in decidua; type: in vivo, mouse; conditions: LPS-injected dams
Description: FIGS. 3A & 3B. The transcript levels of several inflammatory factors such as 116, Illb, Tnf, and Tlr4, among others, were assessed in the decidual samples and increased expression was found in dams intra-amniotically injected with LPS that was abrogated upon treatment with nitazoxanide.
High-throughput RT qPCR: This was performed as previously described (Motomura et al., JCI Insight, 7, 2022). Briefly, total RNA was isolated from decidua with RNeasy Mini Kits (Qiagen), according to the manufacturer's instructions. RNA concentrations, purity, and integrity were evaluated with the NanoDrop 8000 spectrophotometer (Thermo Scientific, Wilmington, DE, USA) and the Bioanalyzer 2100 (Agilent Technologies, Wilmington, DE, USA). cDNA was synthesized by using SuperScript IV VILO Master Mix (Invitrogen by Thermo Fisher Scientific Baltics UAB, Vilnius, Lithuania). Gene expression profiling of the tissues was performed on the BioMark System for high-throughput RT-qPCR (Fluidigm, San Francisco, CA, USA) or the ABI 7500 Fast real-time PCR system (Applied Biosystems, Life Technologies Corporation, Pleasanton, CA, USA) with the TaqMan gene expression assays (Applied Biosystems, Life Technologies Corporation). […] Data were normalized by using multiple reference genes (Gusb, Hsp90abl, Gapdh, and Actb) averaged within each sample, and relative changes in transcript levels were calculated by the AACt method. […]

[2] = tested on: MNRR1-promoter driven luciferase reporter; experiment: High throughput screen with MNRR1-promoter driven luciferase reporter cell lines; type: cell-based, human; conditions: list of 2400 FDA-approved drugs, small molecules and natural products
Description: Cell lines, culture, and Z′ determination: Stable cell line generation: HEK293 or MDA-MB-468 cells were transfected with pGL4-MNNR1-luciferase, selected with 0.5 μg/mL (for 293) or 1 μg/mL (for 468) puromycin for 2 weeks, and subcloned by limiting dilution. MDA-MB-468-MNRR1-luc and HEK293-MNRR1-luc cells from multiple clones (5000-7500 cells) were plated in 100 μL of complete medium overnight and treated with 10 μM of each compound from the library for 24 h. The medium was aspirated from each well to a volume of 25 μL, and 25 μL Bright Glo (Promega, Madison, WI) luciferase detection reagent was added to each well 10 min prior to luminescent determination with a FlexStation 3 Multimode Microplate Reader (Molecular Devices, San Jose, CA). […] The Z′ factor is a value used to identify strong candidates and can be calculated using a previously described method. […]
MicroSource Spectrum Collection: Despite the low Z′ values for MDA-MB-468-MNRR1-luc and HEK293-MNRR1-luc, pilot screens were performed with both using the MicroSource Spectrum Collection (Gaylordsville, CT). […] For HTS, cells were plated, treated, and measured for luciferase expression as described for clone identification; all HTS compounds were added to a final concentration of 10 μM and MNRR1-luciferase expression was measured after 24 h. […]

[3] = single dose of 4 gm, adult humans; cited from earlier work

CC(=O)Oc1ccccc1C(=O)Nc1ncc([N+](=O)[O-])s1 [nitazoxanide, Nitazoxanide]
LPS-increased transcript levels of inflammatory factors in decidual samples [1]: abrogated | outcome of screen for MNRR1 activators [2]: identified as an MNRR1 activator | adverse effects [3]: did not result in any adverse effects
